# Experimental data published in patent publication US8802597B2, “Herbicidal pyrimidines” (E I du Pont de Nemours and Company, priority 2003, dated 2014).
# Where two headings read alike, the source gives them in different places.
# Tests used:
# Type in all cases: in vivo
# [1] = tested on: wheat (Triticum aestivum); assay: Test B pre/postemergence; conditions: Triticum aestivum; for plant injury at 62 g/ha: 62 g ai/ha; for plant injury at 250 g/ha: 250 g ai/ha
# Procedure, shortened: (§1)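 Scores reflect visual comparison with untreated controls, where 0 means no effect and 100 complete control. Plants stayed 13 to 15 days in the greenhouse after pre- or postemergence treatment with compounds carried in a non-phytotoxic solvent and surfactant.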
# [2] = tested on: pigweed (Amaranthus retroflexus); assay: Test B pre/postemergence; conditions: Amaranthus retroflexus; for pest or weed control at 62 g/ha: 62 g ai/ha; for pest or weed control at 250 g/ha: 250 g ai/ha
# Procedure, shortened: as §1
# [3] = tested on: barnyardgrass (Echinochloa crus-galli); assay: Test B pre/postemergence; conditions: Echinochloa crus-galli; for pest or weed control at 62 g/ha: 62 g ai/ha; for pest or weed control at 250 g/ha: 250 g ai/ha
# Procedure, shortened: as §1
# [4] = tested on: velvetleaf (Abutilon theophrasti); assay: Test B pre/postemergence; conditions: Abutilon theophrasti; for pest or weed control at 62 g/ha: 62 g ai/ha; for pest or weed control at 250 g/ha: 250 g ai/ha
# Procedure, shortened: as §1
# [5] = tested on: giant foxtail (Setaria faberii); assay: Test B pre/postemergence; conditions: Setaria faberi; for pest or weed control at 62 g/ha: 62 g ai/ha; for pest or weed control at 250 g/ha: 250 g ai/ha
# Procedure, shortened: as §1
# [6] = tested on: Surinam grass (Brachiaria decumbens); assay: Test B pre/postemergence; conditions: Urochloa decumbens; for pest or weed control at 62 g/ha: 62 g ai/ha; for pest or weed control at 250 g/ha: 250 g ai/ha
# Procedure, shortened: as §1
# [7] = tested on: crabgrass (Digitaria sanguinalis); assay: Test B pre/postemergence; conditions: Digitaria sanguinalis; for pest or weed control at 62 g/ha: 62 g ai/ha; for pest or weed control at 250 g/ha: 250 g ai/ha
# Procedure, shortened: as §1
# [8] = tested on: lambsquarters (Chenopodium album); assay: Test B pre/postemergence; conditions: Chenopodium album, post-emergence, Postemergence
# Procedure, shortened: as §1
# [9] = tested on: corn (Zea mays); assay: Test B pre/postemergence; conditions: Zea mays; for Corn plant response rating (crop injury, 0 = no effect, 100 = complete kill) at 250 g/ha: 250 g ai/ha
# Procedure, shortened: as §1
# [10] = tested on: morningglory (Ipomoea coccinea); assay: Test B pre/postemergence; conditions: Ipomoea; for pest or weed control at 62 g/ha: 62 g ai/ha; for pest or weed control at 250 g/ha: 250 g ai/ha
# Procedure, shortened: as §1
# [11] = tested on: cocklebur (Xanthium strumarium); assay: Test B pre/postemergence; conditions: Xanthium strumarium; for pest or weed control at 62 g/ha: 62 g ai/ha; for pest or weed control at 250 g/ha: 250 g ai/ha
# Procedure, shortened: as §1
# [12] = tested on: wild oat (Avena fatua); assay: Test B postemergence; conditions: Avena fatua, post-emergence
# Procedure, shortened: as §1
# [13] = tested on: blackgrass (Alopecurus myosuroides); assay: Test B postemergence; conditions: Alopecurus myosuroides, post-emergence
# Procedure, shortened: as §1
# [14] = pre-emergence, Preemergence, scale 0 to 100 (0 no effect, 100 complete control), read-out: Plant response rating, Wheat
# [15] = pre-emergence, Preemergence, scale 0 to 100 (0 no effect, 100 complete control), read-out: Plant response rating, Barnyardgrass
compound,measurement,setting,value
CCOC(=O)c1nc(C2CC2)nc(NC(C)=O)c1Br [Compound 53],plant injury at 62 g/ha,"[1]; post-emergence, Postemergence, scale 0 to 100 (0 no effect, 100 complete control), read-out: Wheat plant response rating",30%
same,plant injury at 250 g/ha,"[1]; post-emergence, Postemergence, scale 0 to 100, read-out: Plant response rating, Wheat",60%
same,plant injury at 62 g/ha,[1]; [14],0%
same,plant injury at 250 g/ha,[1]; [14],40%
same,pest or weed control at 62 g/ha,"[2]; post-emergence, Postemergence, scale 0 to 100 (0 no effect, 100 complete control), read-out: Pigweed plant response rating",80%
same,pest or weed control at 250 g/ha,"[2]; post-emergence, Postemergence, scale 0 to 100, read-out: Plant response rating, Pigweed",100%
same,pest or weed control at 62 g/ha,"[2]; pre-emergence, Preemergence, scale 0 to 100, 0 no effect, 100 complete control, read-out: Plant response rating, Pigweed",60%
same,pest or weed control at 250 g/ha,"[2]; pre-emergence, Preemergence, scale 0 to 100 (0 no effect, 100 complete control), read-out: Plant response rating, Pigweed",100%
same,pest or weed control at 62 g/ha,"[3]; post-emergence, Postemergence, scale 0 to 100 (0 no effect, 100 complete control), read-out: Barnyardgrass plant response rating",80%
same,pest or weed control at 250 g/ha,"[3]; post-emergence, Postemergence, scale 0 to 100, read-out: Plant response rating, Barnyardgrass",90%
same,pest or weed control at 62 g/ha,[3]; [15],0%
same,pest or weed control at 250 g/ha,[3]; [15],70%
same,pest or weed control at 62 g/ha,"[4]; post-emergence, Postemergence, scale 0 to 100 (0 no effect, 100 complete control), read-out: Velvetleaf plant response rating",40%
same,pest or weed control at 250 g/ha,"[4]; post-emergence, Postemergence, scale 0 to 100, read-out: Plant response rating, Velvetleaf",80%
same,pest or weed control at 62 g/ha,"[4]; pre-emergence, Preemergence, scale 0 to 100, 0 no effect, 100 complete control, read-out: Plant response rating, Velvetleaf",20%
same,pest or weed control at 250 g/ha,"[4]; pre-emergence, Preemergence, scale 0 to 100 (0 no effect, 100 complete control), read-out: Plant response rating, Velvetleaf",90%
same,pest or weed control at 62 g/ha,"[5]; post-emergence, Postemergence, scale 0 to 100 (0 no effect, 100 complete control), read-out: Foxtail, Giant plant response rating",30%
same,pest or weed control at 250 g/ha,"[5]; post-emergence, Postemergence, scale 0 to 100, read-out: Plant response rating, Foxtail, Giant",70%
same,pest or weed control at 250 g/ha,"[5]; pre-emergence, Preemergence, scale 0 to 100 (0 no effect, 100 complete control), read-out: Plant response rating, Foxtail, Giant",50%
same,pest or weed control at 62 g/ha,"[5]; pre-emergence, Preemergence, scale 0 to 100, 0 no effect, 100 complete control, read-out: Plant response rating, Foxtail, Giant",0%
same,pest or weed control at 62 g/ha,"[6]; post-emergence, Postemergence, scale 0 to 100 (0 no effect, 100 complete control), read-out: Surinam Grass plant response rating",10%
same,pest or weed control at 250 g/ha,"[6]; post-emergence, Postemergence, scale 0 to 100, read-out: Plant response rating, Surinam Grass",50%
same,pest or weed control at 250 g/ha,"[6]; pre-emergence, Preemergence, scale 0 to 100 (0 no effect, 100 complete control), read-out: Plant response rating, Surinam Grass",30%
same,pest or weed control at 62 g/ha,"[6]; pre-emergence, Preemergence, scale 0 to 100, 0 no effect, 100 complete control, read-out: Plant response rating, Surinam Grass",0%
same,pest or weed control at 62 g/ha,"[7]; post-emergence, Postemergence, scale 0 to 100 (0 no effect, 100 complete control), read-out: Crabgrass plant response rating",0%
same,pest or weed control at 250 g/ha,"[7]; post-emergence, Postemergence, scale 0 to 100, read-out: Plant response rating, Crabgrass",30%
same,pest or weed control at 62 g/ha,"[7]; pre-emergence, Preemergence, scale 0 to 100, 0 no effect, 100 complete control, read-out: Plant response rating, Crabgrass",0%
same,pest or weed control at 250 g/ha,"[7]; pre-emergence, Preemergence, scale 0 to 100 (0 no effect, 100 complete control), read-out: Plant response rating, Crabgrass",50%
same,pest or weed control at 62 g/ha,"[8]; 62 g ai/ha, scale 0 to 100 (0 no effect, 100 complete control), read-out: Lambsquarters plant response rating",90%
same,pest or weed control at 250 g/ha,"[8]; 250 g ai/ha, scale 0 to 100, read-out: Plant response rating, Lambsquarters",100%
same,plant injury at 62 g/ha,"[9]; post-emergence, Postemergence, 62 g ai/ha, scale 0 to 100 (0 no effect, 100 complete control), read-out: Corn plant response rating",0%
same,"Corn plant response rating (crop injury, 0 = no effect, 100 = complete kill) at 250 g/ha","[9]; post-emergence, Postemergence, scale 0 to 100",70%
same,"Corn plant response rating (crop injury, 0 = no effect, 100 = complete kill) at 62 g/ha","[9]; pre-emergence, Preemergence, 62 g ai/ha, scale 0 to 100, 0 no effect, 100 complete control",0%
same,"Corn plant response rating (crop injury, 0 = no effect, 100 = complete kill) at 250 g/ha","[9]; pre-emergence, Preemergence, scale 0 to 100 (0 no effect, 100 complete control)",0%
same,pest or weed control at 62 g/ha,"[10]; post-emergence, Postemergence, scale 0 to 100 (0 no effect, 100 complete control), read-out: Morningglory plant response rating",90%
same,pest or weed control at 250 g/ha,"[10]; post-emergence, Postemergence, scale 0 to 100, read-out: Plant response rating, Morningglory",90%
same,pest or weed control at 62 g/ha,"[10]; pre-emergence, Preemergence, scale 0 to 100, 0 no effect, 100 complete control, read-out: Plant response rating, Morningglory",90%
same,pest or weed control at 250 g/ha,"[10]; pre-emergence, Preemergence, scale 0 to 100 (0 no effect, 100 complete control), read-out: Plant response rating, Morningglory",100%
same,pest or weed control at 62 g/ha,"[11]; post-emergence, Postemergence, scale 0 to 100 (0 no effect, 100 complete control), read-out: Cocklebur plant response rating",50%
same,pest or weed control at 250 g/ha,"[11]; post-emergence, Postemergence, scale 0 to 100, read-out: Plant response rating, Cocklebur",90%
same,pest or weed control at 62 g/ha,"[11]; pre-emergence, Preemergence, scale 0 to 100, 0 no effect, 100 complete control, read-out: Plant response rating, Cocklebur",60%
same,pest or weed control at 250 g/ha,"[11]; pre-emergence, Preemergence, scale 0 to 100 (0 no effect, 100 complete control), read-out: Plant response rating, Cocklebur",100%
same,pest or weed control at 62 g/ha,"[12]; 62 g ai/ha, scale 0 to 100 (0 no effect, 100 complete control), read-out: Oat, Wild plant response rating",30%
same,pest or weed control at 250 g/ha,"[12]; 250 g ai/ha, scale 0 to 100, read-out: Plant response rating, Oat, Wild",60%
same,pest or weed control at 62 g/ha,"[13]; 62 g ai/ha, scale 0 to 100 (0 no effect, 100 complete control), read-out: Blackgrass plant response rating",20%
same,pest or weed control at 250 g/ha,"[13]; 250 g ai/ha, scale 0 to 100, read-out: Plant response rating, Blackgrass",60%
